{"source": "PubChem BioAssay AID493250", "about": "(Broad Institute, 2011)", "note": "Activity calls are given as the source filed them.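 Rule for the calls: active = signal decrease with fitted half-maximal dose at or below ten times the highest valid tested dose; inconclusive = poor fit, or flat fit at 30 to 70% inhibition; inactive = the rest.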"}
{"biological_target": "Zinc finger protein mex-5 (Caenorhabditis elegans) (UniProt Q9XUB2)", "sequence (Q9XUB2 whole entry, looked up)": "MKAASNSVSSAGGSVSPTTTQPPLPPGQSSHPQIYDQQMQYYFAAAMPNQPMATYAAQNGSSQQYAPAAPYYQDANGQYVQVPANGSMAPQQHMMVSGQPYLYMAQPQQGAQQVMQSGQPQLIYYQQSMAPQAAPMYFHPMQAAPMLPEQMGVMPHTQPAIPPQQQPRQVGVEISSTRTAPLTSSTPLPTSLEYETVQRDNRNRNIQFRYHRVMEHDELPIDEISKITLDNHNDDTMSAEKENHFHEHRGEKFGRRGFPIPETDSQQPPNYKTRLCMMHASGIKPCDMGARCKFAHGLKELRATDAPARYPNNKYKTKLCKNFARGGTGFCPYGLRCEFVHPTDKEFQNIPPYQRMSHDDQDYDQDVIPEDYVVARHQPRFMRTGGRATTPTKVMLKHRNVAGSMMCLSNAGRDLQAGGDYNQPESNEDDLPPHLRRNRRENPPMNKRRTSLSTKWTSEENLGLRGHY", "assay": "MEX-5 zinc finger-RNA interaction blockers – biochemical, fluorescence polarization, C. elegans, cherry-picked, round 3, dose response (AID 493250)", "settings": "purified MEX-5-MBP, FITC-TCR2 RNA fluorescence polarization"}
{"smiles": "COc1ccccc1/C=C/C=C1\\Oc2c(ccc(O)c2CN(C)C)C1=O", "AC50": "2.28 µM"}
{"smiles": "COc1ccc(/C(O)=C/c2nc3ccccc3n(-c3ccccc3)c2=O)cc1", "AC50": "3.25 µM"}
{"smiles": "CNC(=O)c1cc2ccc(OC)cc2oc1=O", "AC50": "> 10 µM (inactive)"}
{"smiles": "Cc1cccc(N2C(=O)NC(=O)/C(=C/c3cc4c(cc3[N+](=O)[O-])OCO4)C2=O)c1", "AC50": "9.86 µM"}
{"biological_target": "Zinc finger protein mex-5 (Caenorhabditis elegans) (UniProt Q9XUB2)", "assay": "MEX-5 zinc finger-RNA interaction blockers – biochemical, fluorescence polarization, C. elegans, cherry-picked, round 3, dose response (AID 493250)", "settings": "purified MEX-5-MBP, FITC-TCR2 RNA fluorescence polarization; at 10 µM (top of the series)"}
{"smiles": "Cc1ccc(C(=O)/C=C/c2ccccc2[N+](=O)[O-])cc1", "activity change, negative = inhibition": "inactive"}
{"smiles": "CCN=c1scc(-c2ccco2)n1/N=C/c1ccc(O)cc1", "activity change, negative = inhibition": "inactive"}
{"smiles": "Nc1ccccc1C(=O)NNC(=O)C(=O)/C=C(\\O)c1ccccc1", "activity change, negative = inhibition": "inactive"}
{"smiles": "O=C(O)COc1ccc(Br)cc1C(c1c(C(=O)O)[nH]c2ccccc12)c1c(C(=O)O)[nH]c2ccccc12", "activity change, negative = inhibition": "inactive"}
{"smiles": "COc1ccc(OC)c(Nc2nc(-c3ccc(O)c(O)c3)cs2)c1", "activity change, negative = inhibition": "inactive"}
{"smiles": "O=C(NN=C1C2CC3CC1CC(Cl)(C3)C2)c1ccccn1", "activity change, negative = inhibition": "inactive"}
{"smiles": "CCOc1cc(/C=N/Nc2nc(=O)[nH]nc2C)ccc1O", "activity change, negative = inhibition": "inactive"}
{"smiles": "Cc1ccc2c(c1)c(C1=NC(=S)NC1=O)c(O)n2C", "activity change, negative = inhibition": "inactive"}
{"smiles": "Cc1c(Cl)cccc1NC(=O)C(=O)NNS(=O)(=O)c1ccc(F)cc1", "activity change, negative = inhibition": "inactive"}
{"smiles": "COc1cc(/C=C/c2nc(-c3ccccc3O)n[nH]2)cc(OC)c1OC", "activity change, negative = inhibition": "inactive"}
{"smiles": "CC(C#N)(Nc1ccc(Cl)cc1)c1cccnc1", "note": "(configuration not stated)", "activity change, negative = inhibition": "inactive"}
{"smiles": "O=C(O)c1cccc(NC2=C(Cl)C(=O)c3ccccc3C2=O)c1", "activity change, negative = inhibition": "inactive"}
{"smiles": "Cc1ccc(Nc2nc(-c3ccc(C)cc3)c(CC(=O)O)s2)cc1", "activity change, negative = inhibition": "inactive"}
{"smiles": "CCC(=O)N(CC)C1=C(O)c2ccccc2C(=O)C1=O", "activity change, negative = inhibition": "inactive"}
{"smiles": "Cc1cc(=O)n2[nH]c(N)c(N=Nc3ccccc3F)c2n1", "activity change, negative = inhibition": "inactive"}
{"smiles": "CSc1ccc(C(c2c(C(=O)O)[nH]c3ccccc23)c2c(C(=O)O)[nH]c3ccccc23)cc1", "activity change, negative = inhibition": "inactive"}
{"smiles": "CCCCN(CCCC)CCNC(=O)CNC(=O)c1cccs1", "activity change, negative = inhibition": "inactive"}
{"smiles": "O=c1cc(-c2ccccc2)oc2ccc(O)cc12", "activity change, negative = inhibition": "inactive"}
{"smiles": "Cc1ccc(S(=O)(=O)c2cc3c(=O)n4cccc(C)c4nc3n(C3CCCCC3)c2=N)cc1", "activity change, negative = inhibition": "inactive"}
{"smiles": "Cn1c(CNC(=O)c2ccc(F)cc2)cc2ccccc21", "activity change, negative = inhibition": "inactive"}
{"smiles": "Cc1ccc(NC(=O)CCC(=O)NNC(=S)Nc2ccc(F)cc2)c(C)c1", "activity change, negative = inhibition": "inactive"}
{"smiles": "O=C(O)CCC(=O)NNc1ncnc2ccccc12", "activity change, negative = inhibition": "inactive"}
{"smiles": "Cc1cccc(C(=O)NNC(=O)c2ccco2)c1O", "activity change, negative = inhibition": "inactive"}
{"smiles": "O=C1N=c2ccccc2=C1c1[nH]c(=S)[nH]c1O", "activity change, negative = inhibition": "inactive"}
{"smiles": "O=C(O)CSc1ncnc2nc[nH]c12", "activity change, negative = inhibition": "inactive"}
{"smiles": "Oc1cccc(/C=N/NC(=S)Nc2cccnc2)c1O", "activity change, negative = inhibition": "inactive"}
{"smiles": "O=C(N/N=C/c1cccnc1)c1ccc(O)cc1", "activity change, negative = inhibition": "inactive"}
{"smiles": "COc1ccc(C(=O)NNC(=O)c2ccc3ccccc3c2O)cc1", "activity change, negative = inhibition": "inactive"}
{"smiles": "COc1cc(/C=N/NC(=S)Nc2cccc(C(=O)O)c2)ccc1O", "activity change, negative = inhibition": "inactive"}
{"smiles": "O=C(O)c1ccc(N2Cc3ccccc3C2)cc1O", "activity change, negative = inhibition": "inactive"}
{"smiles": "COC(=O)C1=C(C)OC(N)=C(C#N)C1c1cc(OC)c(OCC(N)=O)cc1Cl", "note": "(configuration not stated)", "activity change, negative = inhibition": "inactive"}
{"smiles": "CCOc1cc(/C=N/n2c(C)nc3ccccc3c2=O)ccc1O", "activity change, negative = inhibition": "inactive"}
{"smiles": "O=C1SC(SCc2ccccc2)=N/C1=C\\c1ccc(C(=O)O)cc1", "activity change, negative = inhibition": "inactive"}
